{
  "source": "patent US20030229112A1",
  "about": "“Combination therapy for cancer” (priority 2000, published 2003)",
  "key": {"NB-1771 tumors": {"system": "NB-1771 tumors", "experiment": "Combination study against NB-1771 xenografts", "format": "in vivo, mice", "text": "It has been have shown that the antitumor activity of camptothecins is highly schedule dependent. […] To determine whether there was similar schedule-dependency for temozolomide, the antitumor activity of this agent was examined when given daily for 5 days, 2×5 days per 21 day cycle or 3×5 days per 28 day cycle. See, as incorporated by reference, Houghton, P. J. et al., Clinical Cancer Res. Vol. 6, 4110-4118, October 2000. The total dose per cycle was constant. […] In this experiment mice received a cumulative dose of 210 mg/kg per cycle. Mice received 3 cycles of treatment (total cumulative dose was 630 mg/kg)."}, "Rh18 rhabdomyosarcoma": {"system": "Rh18 rhabdomyosarcoma", "experiment": "Combination study against Rh18 rhabdomyosarcoma xenografts", "format": "in vivo, mice"}, "[1]": {"conditions": "same total dose given over 10 days versus over 5 days or as a single administration; cited from earlier work"}, "in vivo": {"experiment": "in vivo", "conditions": "mouse"}, "[2]": {"system": "NB-SD neuroblastoma xenografts", "experiment": "Combination study against NB-SD neuroblastoma xenografts", "format": "in vivo, mice"}, "advanced melanoma": {"system": "advanced melanoma", "conditions": "cited from earlier work"}, "[3]": {"system": "glioblastoma line, SJ-GBM2", "procedure": "To determine whether there was similar schedule-dependency for temozolomide, the antitumor activity of this agent was examined when given daily for 5 days, 2×5 days per 21 day cycle or 3×5 days per 28 day cycle. […] The total dose per cycle was constant. […] Mice received 3 cycles of treatment (total cumulative dose was 630 mg/kg)."}, "NB-1382 xenografts": {"system": "NB-1382 xenografts", "experiment": "Schedule dependence of temozolomide against NB-1382 xenografts", "format": "in vivo, mice", "description": "It has been have shown that the antitumor activity of camptothecins is highly schedule dependent. […] The total dose per cycle was constant. […] In this experiment mice received a cumulative dose of 210 mg/kg per cycle."}, "[4]": {"system": "five other xenograft lines", "experiment": "Schedule dependence of temozolomide in five other xenograft lines", "format": "in vivo, mice", "procedure": "To determine whether there was similar schedule-dependency for temozolomide, the antitumor activity of this agent was examined when given daily for 5 days, 2×5 days per 21 day cycle or 3×5 days per 28 day cycle. […] The total dose per cycle was constant. […] In this experiment mice received a cumulative dose of 210 mg/kg per cycle. Mice received 3 cycles of treatment (total cumulative dose was 630 mg/kg)."}, "[5]": {"conditions": "irinotecan, SN-38 and APC, following administration"}},
  "data": [
    {"compound": "CCc1c2c(nc3ccc(OC(=O)N4CCC(N5CCCCC5)CC4)cc13)-c1cc3c(c(=O)n1C2)COC(=O)[C@]3(O)CC", "note": "[irinotecan, 7-ethyl-10-(4-[1-piperidino)-1-piperidino]-carbonyloxy-camptothecin]", "values": [
      {"measurement": "tumor response", "setting": "NB-1771 tumors; CPT-11 alone at 0.61 mg/kg", "value": "an occasional CR"},
      {"measurement": "tumor status at week 12", "setting": "NB-1771 tumors; CPT-11 alone at 1.25 or 0.61 mg/kg", "value": "all tumors had progressed"},
      {"measurement": "tumor response", "setting": "Rh18 rhabdomyosarcoma; CPT-11 alone at the doses used in the combination", "value": "few CRs"},
      {"measurement": "antitumor activity by schedule", "setting": "[1]", "value": "significantly more active"},
      {"measurement": "AUC(0-inf)", "setting": "in vivo", "value": 1820, "unit": "ng·h/mL"},
      {"measurement": "Cmax", "setting": "in vivo", "value": 1240, "unit": "ng/mL"},
      {"measurement": "Tmax", "setting": "in vivo", "value": 30, "unit": "min"},
      {"measurement": "tumor response", "setting": "[2]; CPT-11 alone at 0.4 mg/kg", "value": "tumors progressed"}
    ]},
    {"compound": "Cn1nnc2c(C(N)=O)ncn2c1=O", "note": "[temozolomide, 3,4-dihydro-3-methyl-4-oxoimidazo-[5,1-d]1,2,3,4-tetrazin-8-carboximide]", "values": [
      {"measurement": "sensitivity of tumors to single agent", "setting": "NB-1771 tumors; temozolomide as a single agent", "value": "relatively sensitive"},
      {"measurement": "sensitivity of xenograft to single agent", "setting": "Rh18 rhabdomyosarcoma; temozolomide as a single agent", "value": "poorly sensitive"},
      {"measurement": "clinical responses, % of patients", "setting": "advanced melanoma; patients having advanced melanoma, Newlands et al., Br. J Cancer 1992", "value": 17, "unit": "%"},
      {"measurement": "clinical response, % of patients", "setting": "advanced melanoma; patients with advanced melanoma, Journal of Clinical Oncology 1995", "value": 21, "unit": "%"},
      {"measurement": "overall effect of treatment", "setting": "[3]; temozolomide alone at 42 mg/kg, tumor volume at end of treatment similar to initiation", "value": "stasis"},
      {"measurement": "tumor response", "setting": "[3]; temozolomide alone at 66 or 42 mg/kg, during the 8 weeks of treatment", "value": "some PRs, and an occasional CR"},
      {"measurement": "toxicity", "setting": "[3]; temozolomide alone, higher dose level (66 mg/kg)", "value": "lethal during cycle 3 of treatment"},
      {"measurement": "tumor response", "setting": "NB-1382 xenografts; lower doses given over more protracted periods (2x5 days per 21 day cycle, 3x5 days per 28 day cycle), same total dose per cycle", "value": "progressively less effective"},
      {"measurement": "tumor response", "setting": "NB-1382 xenografts; temozolomide given over 5 days, 42 mg/kg/dose, 210 mg/kg per cycle, 3 cycles", "value": "CRs were achieved in all mice, and were maintained at week 12"},
      {"measurement": "activity of most intensive schedule (daily for 5 consecutive days per cycle) compared to the other schedules", "setting": "[4]; all experiments", "value": "either more active or equally active"},
      {"measurement": "schedule-dependent antitumor activity", "setting": "[4]; five other xenograft lines (data not shown)", "value": "Far less schedule-dependent antitumor activity"},
      {"measurement": "AUC(0-inf)", "setting": "in vivo", "value": 47000, "unit": "ng·h/mL"},
      {"measurement": "Cmax", "setting": "in vivo", "value": 36000, "unit": "ng/mL"},
      {"measurement": "Tmax", "setting": "in vivo", "value": 30, "unit": "min"},
      {"measurement": "tumor response", "setting": "[2]; temozolomide alone at tolerated dose levels", "value": "little activity"}
    ]},
    {"compound": "CCc1c2c(nc3ccc(O)cc13)-c1cc3c(c(=O)n1C2)COC(=O)[C@]3(O)CC", "note": "[SN-38]", "values": [
      {"measurement": "apparent tmax", "setting": "[5]", "value": 15, "unit": "min"}
    ]},
    {"compound": "CCc1c2c(nc3ccc(OC(=O)N4CCC(NCCCCC(=O)O)CC4)cc13)-c1cc3c(c(=O)n1C2)COC(=O)[C@]3(O)CC", "note": "[APC]", "values": [
      {"measurement": "apparent tmax", "setting": "[5]", "value": 60, "unit": "min"}
    ]}
  ]
}
